Data on 24 molecules can be found in US20250275959A1, “COMPOUNDS AND METHODS OF THEIR USE” (LEXICON PHARMACEUTICALS, INC., priority 2024, published 2025).

Assay [1] addresses T1, hACSL5 (Homo sapiens (Human), UniProt Q9ULC5). Put plainly: Human ACSL5 coupled enzyme Amplex Red assay. The note with it: read-out: hACSL5 IC50. It counts as biochemical. The gist of the method:
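C-terminally His-tagged ACSL5 (33-683) from sf9 cells, 20 nM, was preincubated with compound in MOPS-NaOH pH 7.6 with MgCl2, peroxidase and acyl-CoA oxidase. Reactions were started with 25 μM oleate, 30 μM CoA, 1 mM ATP and 50 μM Amplex Red; fluorescence (535/590 nm) after 10 minutes at 25° C. was fitted to the Hill equation for IC50 and maximal inhibition.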
Target sequence in this assay (Q9ULC5 33-683): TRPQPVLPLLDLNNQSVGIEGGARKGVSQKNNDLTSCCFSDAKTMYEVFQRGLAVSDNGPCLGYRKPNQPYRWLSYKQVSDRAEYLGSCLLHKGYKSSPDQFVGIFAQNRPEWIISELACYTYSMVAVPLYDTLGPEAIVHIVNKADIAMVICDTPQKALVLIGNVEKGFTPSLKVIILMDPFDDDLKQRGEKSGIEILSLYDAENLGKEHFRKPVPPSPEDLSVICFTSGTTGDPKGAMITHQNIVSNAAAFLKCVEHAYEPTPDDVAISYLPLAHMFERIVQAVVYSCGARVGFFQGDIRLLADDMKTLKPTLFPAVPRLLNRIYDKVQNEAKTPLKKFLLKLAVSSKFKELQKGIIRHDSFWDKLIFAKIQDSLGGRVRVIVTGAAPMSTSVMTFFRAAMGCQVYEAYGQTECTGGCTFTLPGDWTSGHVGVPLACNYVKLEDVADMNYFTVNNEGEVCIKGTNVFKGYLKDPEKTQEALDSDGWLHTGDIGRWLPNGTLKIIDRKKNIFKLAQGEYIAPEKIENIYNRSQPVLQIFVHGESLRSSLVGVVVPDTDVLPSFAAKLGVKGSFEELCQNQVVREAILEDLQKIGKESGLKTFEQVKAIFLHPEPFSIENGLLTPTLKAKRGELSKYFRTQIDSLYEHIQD

The target in assay [2] is T1, hACSL5. The assay is described as follows: Cell-based assay (CBA) with B12FA in hACSL5-transfected Expi293F / FlpIn TRex293 cells. The note with it: hACSL5-expressing cells. In outline: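 hACSL5-expressing Expi293F or tetracycline-induced FlpIn TRex293 cells, serum- and glucose-starved 1 h, then treated 3 h with serially diluted compound plus 20 µM B12FA. After fixation, 630/520 nm emission ratio (ex 485 nm) gave % inhibition versus no-inhibitor and 10 µM compound/non-induced controls; IC50 by Hill fit.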
Target sequence in this assay (Q9ULC5 whole entry): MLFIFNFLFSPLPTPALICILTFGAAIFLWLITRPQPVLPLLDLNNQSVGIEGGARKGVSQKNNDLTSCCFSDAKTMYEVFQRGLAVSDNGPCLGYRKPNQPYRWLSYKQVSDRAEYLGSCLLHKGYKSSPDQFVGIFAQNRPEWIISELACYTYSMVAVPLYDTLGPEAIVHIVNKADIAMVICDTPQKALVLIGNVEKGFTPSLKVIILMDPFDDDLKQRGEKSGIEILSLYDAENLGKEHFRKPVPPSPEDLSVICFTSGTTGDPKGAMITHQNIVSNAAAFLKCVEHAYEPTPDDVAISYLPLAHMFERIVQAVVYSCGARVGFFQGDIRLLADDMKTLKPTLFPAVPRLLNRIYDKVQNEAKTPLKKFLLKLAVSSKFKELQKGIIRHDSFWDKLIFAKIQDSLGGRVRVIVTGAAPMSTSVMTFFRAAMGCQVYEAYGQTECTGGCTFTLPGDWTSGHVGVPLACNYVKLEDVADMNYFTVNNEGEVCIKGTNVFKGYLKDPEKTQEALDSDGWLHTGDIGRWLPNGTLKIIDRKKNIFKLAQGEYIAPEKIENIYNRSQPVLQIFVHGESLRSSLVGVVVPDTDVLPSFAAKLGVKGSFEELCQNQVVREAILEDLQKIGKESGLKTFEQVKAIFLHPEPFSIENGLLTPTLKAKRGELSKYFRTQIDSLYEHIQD

Broadly, the IC50 is the concentration needed to halve the response being measured. As to `CC[C@@H](Oc1ccc(C(=O)NS(=O)(=O)N2CCC(OC3CCN(C)CC3)CC2)cc1C(F)(F)F)c1ccc(OC2CC(OC)C2)cn1` (stereo partly drawn) [4-((R)-1-(5-((1R,3R)-3-methoxycyclobutoxy)pyridin-2-yl)propoxy)-N-((4-((1-methylpiperidin-4-yl)oxy)piperidin-1-yl)sulfonyl)-3-(trifluoromethyl)benzamide], the IC50 on hACSL5 [1] is less than 0.1 µM; against hACSL5 [2], 0.1 to 0.5 µM.
The like results for `CC[C@@H](Oc1ccc(C(=O)NS(=O)(=O)N2CCC(OC3CCN(C)CC3)CC2)c(F)c1F)c1cc(OCC2CC2)ccn1` [(R)-4-(1-(4-(cyclopropylmethoxy)pyridin-2-yl)propoxy)-2,3-difluoro-N-((4-((1-methylpiperidin-4-yl)oxy)piperidin-1-yl)sulfonyl)benzamide] were, in that order, 0.1 to 0.5 µM and 0.1 to 0.5 µM.
On to `CC[C@@H](Oc1ccc(C(=O)NS(=O)(=O)N2CCN(CC(C)(C)F)CC2)c(F)c1F)c1ccc(OCC2CC2)cn1` [(R)-4-(1-(5-(cyclopropylmethoxy)pyridin-2-yl)propoxy)-2,3-difluoro-N-((4-(2-fluoro-2-methylpropyl)piperazin-1-yl)sulfonyl)benzamide], for which the IC50 at hACSL5 [1] and against hACSL5 [2] was less than 0.1 µM in each case.
On to `CCOc1ccc(C(C)Oc2ccc(C(=O)NS(=O)(=O)c3ccc(OCCn4ccnc4)cc3)c(F)c2F)nc1` (stereo not drawn) [N-((4-(2-(1H-imidazol-1-yl)ethoxy)phenyl)sulfonyl)-4-(1-(5-ethoxypyridin-2-yl)ethoxy)-2,3-difluorobenzamide], for which the values for the half-maximal inhibitory concentration (IC50) at hACSL5 [1] and at hACSL5 [2] were 0.1 to 0.5 µM and greater than 0.5 µM, respectively.
Consider `CC[C@@H](Oc1ccc(C(=O)NS(=O)(=O)N2CCN(CCOC)CC2)c(F)c1F)c1ccc(OCC2CC2)cn1` [(R)-4-(1-(5-(cyclopropylmethoxy)pyridin-2-yl)propoxy)-2,3-difluoro-N-((4-(2-methoxyethyl)piperazin-1-yl)sulfonyl)benzamide], for which the half-inhibitory concentration (IC50) at hACSL5 [1] and against hACSL5 [2] was less than 0.1 µM throughout.
Consider `CC[C@@H](Oc1ccc(C(=O)NS(=O)(=O)N2CCN(C3CCC3)CC2)c(F)c1F)c1ccc(Oc2ccccn2)cn1` [(R)-N-((4-cyclobutylpiperazin-1-yl)sulfonyl)-2,3-difluoro-4-(1-(5-(pyridin-2-yloxy)pyridin-2-yl)propoxy)benzamide], for which the IC50 on hACSL5 [1] and against hACSL5 [2] was less than 0.1 µM in each case.
Consider `CC[C@@H](Oc1ccc(C(=O)NS(=O)(=O)c2ccc(OC3CCCN(C)C3)cc2)c(F)c1F)c1ccc(Oc2ccccn2)cn1` (stereo partly drawn) [2,3-difluoro-N-((4-((1-methylpiperidin-3-yl)oxy)phenyl)sulfonyl)-4-((R)-1-(5-(pyridin-2-yloxy)pyridin-2-yl)propoxy)benzamide], for which the IC50 at hACSL5 [1] and against hACSL5 [2] was less than 0.1 µM throughout.
`CC[C@@H](Oc1ccc(C(=O)NS(=O)(=O)N2CCC(OC3CCN(CC4CC4)CC3)CC2)c(F)c1F)c1ccc(OCC2CC2)cn1` [(R)-4-(1-(5-(cyclopropylmethoxy)pyridin-2-yl)propoxy)-N-((4-((1-(cyclopropylmethyl)piperidin-4-yl)oxy)piperidin-1-yl)sulfonyl)-2,3-difluorobenzamide]: the values for the IC50 at hACSL5 [1] and against hACSL5 [2] were less than 0.1 µM and 0.1 to 0.5 µM, respectively.
Consider `CC[C@@H](Oc1ccc(C(=O)NS(=O)(=O)N2CC3CC2CC3OCCN2CCCC2)c(F)c1F)c1ccc(OCC2CC2)cn1` (stereo partly drawn) [4-((R)-1-(5-(cyclopropylmethoxy)pyridin-2-yl)propoxy)-2,3-difluoro-N-((5-(2-(pyrrolidin-1-yl)ethoxy)-2-azabicyclo[2.2.1]heptan-2-yl)sulfonyl)benzamide], for which the IC50 was less than 0.1 µM at hACSL5 [1] and 0.1 to 0.5 µM at hACSL5 [2].
Turning to `CC[C@@H](Oc1ccc(C(=O)NS(=O)(=O)c2ccc(OC3CCCN(C)C3)cc2)c(F)c1F)c1ccc(OCC2CC2)cn1` (stereo partly drawn) [4-((R)-1-(5-(cyclopropylmethoxy)pyridin-2-yl)propoxy)-2,3-difluoro-N-((4-((1-methylpiperidin-3-yl)oxy)phenyl)sulfonyl)benzamide], the IC50 on hACSL5 [1] and at hACSL5 [2] was less than 0.1 µM each time.
On to `CC[C@@H](Oc1ccc(C(=O)NS(=O)(=O)c2ccc(NC3CCN(C(C)C)CC3)nc2)c(F)c1F)c1ccc(OCC2CC2)cn1` [(R)-4-(1-(5-(cyclopropylmethoxy)pyridin-2-yl)propoxy)-2,3-difluoro-N-((6-((1-isopropylpiperidin-4-yl)amino)pyridin-3-yl)sulfonyl)benzamide], for which the IC50 at hACSL5 [1] is less than 0.1 µM; at hACSL5 [2], greater than 0.5 µM.
The corresponding values for `CC[C@@H](Oc1ccc(C(=O)NS(=O)(=O)c2ccc(OC3CCN(CC)CC3)cc2)c(F)c1F)c1ccc(OCC2CC2)cn1` [(R)-4-(1-(5-(cyclopropylmethoxy)pyridin-2-yl)propoxy)-N-((4-((1-ethylpiperidin-4-yl)oxy)phenyl)sulfonyl)-2,3-difluorobenzamide] are less than 0.1 µM and less than 0.1 µM.
Regarding `CC[C@@H](Oc1ccc(C(=O)NS(=O)(=O)c2ccc(OCCn3ccnc3)cc2)c(F)c1F)c1ccc(OCCOC)cn1` [(R)-N-((4-(2-(1H-imidazol-1-yl)ethoxy)phenyl)sulfonyl)-2,3-difluoro-4-(1-(5-(2-methoxyethoxy)pyridin-2-yl)propoxy)benzamide], the concentration for half-maximal inhibition (IC50) at hACSL5 [1] was less than 0.1 µM; at hACSL5 [2], greater than 0.5 µM.
As to `CC[C@@H](Oc1ccc(C(=O)NS(=O)(=O)c2ccc(OC3CCN(C(C)C)CC3)cc2)c(F)c1F)c1ccc(OCC2CC2)cn1` [(R)-4-(1-(5-(cyclopropylmethoxy)pyridin-2-yl)propoxy)-2,3-difluoro-N-((4-((1-isopropylpiperidin-4-yl)oxy)phenyl)sulfonyl)benzamide], the IC50 at hACSL5 [1] was less than 0.1 µM; on hACSL5 [2] it was 0.1 to 0.5 µM.
The corresponding values for `CC[C@@H](Oc1ccc(C(=O)NS(=O)(=O)c2ccc(OCCNC3COC3)cc2)c(F)c1F)c1ccc(OCC2CC2)cn1` [(R)-4-(1-(5-(cyclopropylmethoxy)pyridin-2-yl)propoxy)-2,3-difluoro-N-((4-(2-(oxetan-3-ylamino)ethoxy)phenyl)sulfonyl)benzamide] are less than 0.1 µM and 0.1 to 0.5 µM.
On to `CC[C@@H](Oc1ccc(C(=O)NS(=O)(=O)c2ccc(O[C@@H]3CCN(C)C3)cc2)c(F)c1F)c1ccc(OCC2CC2)cn1` [4-((R)-1-(5-(cyclopropylmethoxy)pyridin-2-yl)propoxy)-2,3-difluoro-N-((4-(((R)-1-methylpyrrolidin-3-yl)oxy)phenyl)sulfonyl)benzamide], for which the results for the IC50 at hACSL5 [1] and against hACSL5 [2] were less than 0.1 µM and 0.1 to 0.5 µM, respectively.
Take `CC[C@@H](Oc1ccc(C(=O)NS(=O)(=O)c2ccc(OCC[C@H]3CCCCN3C)cc2)c(F)c1F)c1ccc(OCC2CC2)cn1` [4-((R)-1-(5-(cyclopropylmethoxy)pyridin-2-yl)propoxy)-2,3-difluoro-N-((4-(2-((R)-1-methylpiperidin-2-yl)ethoxy)phenyl)sulfonyl)benzamide]: the IC50 on hACSL5 [1] was less than 0.1 µM; against hACSL5 [2], 0.1 to 0.5 µM.
As to `CC[C@@H](Oc1ccc(C(=O)NS(=O)(=O)N2CCN(C3CC3)CC2)c(F)c1F)c1ccc(OC2CC(OC)C2)cn1` (stereo partly drawn) [N-((4-cyclopropylpiperazin-1-yl)sulfonyl)-2,3-difluoro-4-((R)-1-(5-((1R,3R)-3-methoxycyclobutoxy)pyridin-2-yl)propoxy)benzamide], the IC50 was less than 0.1 µM on hACSL5 [1] and 0.1 to 0.5 µM against hACSL5 [2].
For `CC[C@@H](Oc1ccc(C(=O)NS(=O)(=O)c2ccc(OC3CCN(C(C)C)CC3)nc2)c(F)c1F)c1ccc(OCC2CC2)cn1` [(R)-4-(1-(5-(cyclopropylmethoxy)pyridin-2-yl)propoxy)-2,3-difluoro-N-((6-((1-isopropylpiperidin-4-yl)oxy)pyridin-3-yl)sulfonyl)benzamide], the IC50 is less than 0.1 µM on hACSL5 [1] and 0.1 to 0.5 µM against hACSL5 [2].
Consider `CC[C@@H](Oc1ccc(C(=O)NS(=O)(=O)N2CCN(CC)CC2)cc1C(F)(F)F)c1ccc(Oc2ccccn2)cn1` [(R)-N-((4-ethylpiperazin-1-yl)sulfonyl)-4-(1-(5-(pyridin-2-yloxy)pyridin-2-yl)propoxy)-3-(trifluoromethyl)benzamide], for which the 50% inhibitory concentration (IC50) at hACSL5 [1] and on hACSL5 [2] was less than 0.1 µM each time.
As to `CC[C@@H](Oc1ccc(C(=O)NS(=O)(=O)C(C)(C)CN(C)C)c(F)c1F)c1ccc(OCC2CC2)cn1` [(R)-4-(1-(5-(cyclopropylmethoxy)pyridin-2-yl)propoxy)-N-((1-(dimethylamino)-2-methylpropan-2-yl)sulfonyl)-2,3-difluorobenzamide], the IC50 on hACSL5 [1] and against hACSL5 [2] was 0.1 to 0.5 µM each time.
In the case of `CC[C@@H](Oc1ccc(C(=O)NS(=O)(=O)N2CCN(C)C(C)(C)C2)c(F)c1F)c1ccc(OCC2CC2)cn1` [(R)-4-(1-(5-(cyclopropylmethoxy)pyridin-2-yl)propoxy)-2,3-difluoro-N-((3,3,4-trimethylpiperazin-1-yl)sulfonyl)benzamide], the IC50 on hACSL5 [1] and against hACSL5 [2] was less than 0.1 µM throughout.
As for `CC[C@@H](Oc1ccc(C(=O)NS(=O)(=O)N2CCC(CN3CCN(CC)CC3)CC2)c(F)c1F)c1ccc(OCC2CC2)cn1` [(R)-4-(1-(5-(cyclopropylmethoxy)pyridin-2-yl)propoxy)-N-((4-((4-ethylpiperazin-1-yl)methyl)piperidin-1-yl)sulfonyl)-2,3-difluorobenzamide], the IC50 at hACSL5 [1] is less than 0.1 µM; at hACSL5 [2], greater than 0.5 µM.
Regarding `CC[C@@H](Oc1ccc(C(=O)NS(=O)(=O)c2ccc(O[C@@H]3C[C@H]4C[C@@H]3CN4C)cc2)c(F)c1F)c1ccc(OCC2CC2)cn1` [4-((R)-1-(5-(cyclopropylmethoxy)pyridin-2-yl)propoxy)-2,3-difluoro-N-((4-(((1R,4R,5R)-2-methyl-2-azabicyclo[2.2.1]heptan-5-yl)oxy)phenyl)sulfonyl)benzamide], the figures for the IC50 on hACSL5 [1] and on hACSL5 [2] were less than 0.1 µM and greater than 0.5 µM, respectively.
